Measured values as given in US9258995B2, “Organ cold storage composition and methods of use” (BOARD OF TRUSTEES OF THE UNIVERSITY OF ARKANSAS, priority 2009, dated 2016).

Experiments:
[1] = test system: rat kidneys; test: MitoSOX Red mitochondrial superoxide generation, cold storage ex vivo model
Experimental: All animals were treated according to the National Institutes of Health Guide for the Care and Use of Laboratory Animals and the University of Arkansas for Medical Sciences Institutional Animal Care and Use Committee guidelines. Male Fischer 344 inbred rats (Charles Rivers Laboratories, Inc., Wilmington, Mass.) weighing between 250 and 300 g were anesthetized with ethrane, followed by shaving and prepping with betadine. […] Bulldog clamps were placed on the aorta and vena cava (proximal and distal to the renal vessels) to prevent blood flow to the kidneys. A 22-gauge surgical needle was used to puncture the rat's aorta to flush the renal grafts with saline (10 ml per kidney) using a small catheter. Once the kidneys started to turn light brown (perfusion), another vent was formed in the vena cava to allow blood flow from the kidneys. Once both kidneys were completely flushed, the right kidney was recovered and served as a control (group 1), and the left kidney was exposed to CS alone for 4 h at 4° C. (group 2). In additional experiments, kidneys were flushed with saline through the aorta using a small catheter followed by flushing the right kidney with saline containing MitoQ (100 μM) and the left kidney with saline containing DecylTPP (100 μM) (10 ml per kidney). Tissues were recovered and stored in CS+MitoQ (100 μM; right kidney) or CS+DecylTPP (100 μM; left kidney) for 4 h at 4° C. (groups 3 and 4, respectively). […]
MitoSOX Red (Invitrogen) was used to measure mitochondrial superoxide generation during CS. […] Fluorescence was visualized using an Eclipse E800 microscope (Nikon, Melville, N.Y.) with a rhodamine filter using a water immersion objective (60×). Fluorescent images of NRK cells were captured with equal exposure times and quantified by averaging the mean intensity fluorescence of five random cells in three different fields using Nikon N is Elements software. In separate experiments, cells were grown on coverslips, preloaded with MitoSOX Red before treatment (groups 1-4), and evaluated for mitochondrial superoxide generation using a Hitachi F-2500 spectrofluorometer (Hitachi, Tokyo, Japan) equipped with a coverslip holder using two different excitation wavelengths: 396 and 510 nm with the emission measured at 580 nm as previously described. In addition, rat kidneys were monitored for mitochondrial superoxide generation by flushing kidneys with saline through the aorta using a small catheter as described under Cold Storage Ex Vivo Model, followed by saline containing MitoSOX Red (5 μM; 10 ml/kidney) before treatment (groups 1-4). Paraffin sections were analyzed using the rhodamine filter on the Nikon Eclipse 800 microscope (20×).

[2] = test system: rat kidneys; test: Nitrotyrosine immunohistochemistry during CS; conditions: 4 h CS, 100 μM
Experimental: All animals were treated according to the National Institutes of Health Guide for the Care and Use of Laboratory Animals and the University of Arkansas for Medical Sciences Institutional Animal Care and Use Committee guidelines. Male Fischer 344 inbred rats (Charles Rivers Laboratories, Inc., Wilmington, Mass.) weighing between 250 and 300 g were anesthetized with ethrane, followed by shaving and prepping with betadine. […] Bulldog clamps were placed on the aorta and vena cava (proximal and distal to the renal vessels) to prevent blood flow to the kidneys. A 22-gauge surgical needle was used to puncture the rat's aorta to flush the renal grafts with saline (10 ml per kidney) using a small catheter. Once the kidneys started to turn light brown (perfusion), another vent was formed in the vena cava to allow blood flow from the kidneys. […]
(§1) NRK cells (groups 1-4) were assessed for nitrotyrosine formation as previously described. […] Nitrotyrosine staining was evaluated and captured with equal exposure times using a Nikon Eclipse 800 microscope (40×oil). Images were quantified by averaging the mean intensity fluorescence of five random cells in three different fields using Nikon N is Elements software. Renal tissue sections were assessed for the presence of nitrotyrosine protein adducts by nitrotyrosine immunohistochemistry. […]

[3] = test system: NRK cells; test: Nitrotyrosine immunocytochemistry, CS plus rewarming; assay type: cell-based, rat; conditions: 4-h CS plus overnight (18 h) RW, 1 μM added during CS
Experimental: Normal rat kidney proximal tubular cells (NRK-52E; American Type Culture Collection, Manassas, Va.) were maintained in six-well 100 or 150-mm, or 150-mm plates in a humidified incubator gassed with 5% CO2 and 95% air at 37° C. in DMEM (Invitrogen, Carlsbad, Calif.) containing 5% fetal calf serum (FCS). Cells were grown to 60% confluence and divided into four treatment groups: 1) untreated (Untx), 2) CS, 3) CS+MitoQ, and 4) CS+DecylTPP. Untreated cells remained at 37° C. in DMEM containing 5% FCS (group 1). CS was initiated by washing cells with cold PBS (Invitrogen) twice and storing them in UW/Viaspan solution alone (4 h at 4° C.) (group 2), CS+MitoQ (1 μM) (group 3), or CS+DecylTPP (1 μM) (group 4). In separate experiments, cells were exposed to CS plus RW by replacing UW solution alone or UW solution containing MitoQ or DecylTPP with DMEM containing 5% FCS overnight (18 h at 37° C.).
as §1

[4] = test system: porcine renal mitochondrial respiratory complex IV; test: Mitochondrial respiratory complex activity, porcine ex vivo renal model
Experimental: (§2) FIG. 15 depicts graphs showing activities or (A) porcine renal mitochondrial respiratory complex I, (B) activities or porcine renal mitochondrial respiratory complex II/III, and (C) activities or porcine renal mitochondrial respiratory complex IV, after MitoQ treatment. MitoQ ([…]) protected porcine complex II/III following 24 hr cold preservation. Values are expressed as mean SEM (n=4).
(§3) Mitochondrial respiratory complex activity was also evaluated in the porcine ex vivo renal model at 24-h and 48-h CS. […] Protection of Complex II/III by MitoQ (100 μM) was significant following 24-h cold preservation.

[5] = test system: porcine renal mitochondrial respiratory complex I; test: as above
Experimental: as §2, §3

[6] = test system: porcine renal mitochondrial respiratory complex II/III; test: as above; design: protection of porcine complex II/III: dose or concentration left out as unconfirmed
Experimental: as §2, §3

[7] = patients with chronic hepatitis C virus infection, phase II clinical trials; cited from earlier work
[8] = two phase II clinical trials for Parkinson's disease and hepatitis C virus; cited from earlier work

With `COC1=C(OC)C(=O)C(CCCCCCCCCC[P+](c2ccccc2)(c2ccccc2)c2ccccc2)=C(C)C1=O` [MitoQ, mitoquinone] as the compound, how does the “mitochondrial superoxide production (Mitosox Red staining)” value ([1]; following cold preservation (Example 1)) read?
The value was “blunted”.

And the “mitochondrial superoxide generation (MitoSOX Red)” value ([1]; rat kidneys, 4 h CS at 4° C., 100 μM)?
The value was “markedly decreased”.

What about the “MitoSox Red staining (superoxide)” value ([1]; rat kidneys, cold storage 4 hr UW, 4° C., UW+MitoQ (100 µM), n=3) of the same compound?
Its value is “decreases”.

What about the “nitrotyrosine formation (immunohistochemistry)” value [2] of the same compound?
Its value is “less nitrotyrosine formation”.

And the “nitrotyrosine staining during CS.RW” value [3]?
Its value is “attenuated nitrotyrosine staining significantly”.

And the “protection of Complex IV activity, 24-h versus 48-h CS” value [4]?
The value was “at 24-h better than at 48-h”.

What about the “protection of Complex I activity, 24-h versus 48-h CS” value [5] of the same compound?
Its value is “at 24-h better than at 48-h”.

What about the “protection of Complex II/III activity, 24-h versus 48-h CS” value ([6]; porcine ex vivo renal model) of the same compound?
Its value is “at 24-h better than at 48-h”.

What about the “Protection of Complex II/III” value ([6]; porcine kidneys, 24-h cold preservation, MitoQ (100 μM)) of the same compound?
The value was “significant”.

And the “protection of porcine complex II/III” value ([6]; porcine kidneys, 24 hr cold preservation)?
Its value is “protected”.

What about the liver damage [7] of the same compound?
The liver damage was “reduce liver damage”.

What about the safety and tolerability [8] of the same compound?
The safety and tolerability was “safe and well tolerated”.
